Data from patent US11077167B2, “Agent for promoting skeletal muscle injury repair” (Osaka University, priority 2017, dated 2021).

Assays:
[1] = test system: muscle injury model rats (incised masseter muscles on both sides); experiment: Behavioral physiological experiment (feeding behavior, body weight), Example 1; format: in vivo, Jcl:SD rats; settings: 1 mL intramuscular
Experimental: (§1) Incisions were made in masseter muscles on both sides in Jcl:SD rats (10 weeks old). Immediately after muscle incision, 1 mL each of the SV peptide (20 ng/mL) was intramuscularly administered into several sites surrounding the cut surfaces. The incision on each side was made along a straight line connecting the lateral angle of the eye and the mandibular angle, extending in depth from the fascia on the skin side to the lateral periosteum on the mandibular ramus. The cut surfaces were subjected to electrocoagulation with an electric scalpel for the arrest of bleeding (see FIG. 1).
Feeding behavior and body weight of each rat was monitored preoperatively and 1 and 2 weeks postoperatively. More specifically, each rat was housed in a transparent plastic cage of 30 cm in length×30 cm in width×30 cm in height, and the behavior was recorded on video cameras during the active time of rats (18:00 to 22:00). Food intake and mastication time were measured, and the food intake per unit of mastication time (feeding efficiency) was calculated. This experiment was performed on a muscle injury model subjected to administration of the SV peptide into the incised masseter muscles on both sides (SV group) and on a muscle injury model subjected to administration of PBS into the incised masseter muscles on both sides (PBS group).

[2] = test system: muscle injury model rats (incised masseter muscles on both sides); experiment: Electrophysiological experiment (masseter EMG, Lissajous pattern), Example 1; format: in vivo, Jcl:SD rats; settings: 1 week postoperatively
Experimental: as §1
This experiment was performed on rats subjected to incision of masseter muscles on both sides and subsequent administration of the SV peptide into the incised left masseter muscle and of PBS into the incised right masseter muscle. Bipolar needle electrodes were retained in the masseter muscles on both sides, and myogenic potential signals received through connectors fixed to both sides of the parietal bone were monitored. Electromyographic (EMG) data were recorded preoperatively and 1 week postoperatively. Generally, in the electromyogram of masseter muscles recorded during food ingestion, the cutting phase and the grinding phase in the masticatory movement show different waveforms. […]
Lissajous pattern (FIG. 3). […] Based on this, the chewing side preference was determined.

[3] = test system: muscle injury model rats (incised masseter muscles on both sides); experiment: CT image analysis at postoperative week 8; format: in vivo, Jcl:SD rats
Experimental: as §1, with “old) under anesthesia in the same manner as in Example 1.” for “old).”, “ng/mL) or 1 mL each of PBS” for “ng/mL)”, “1). […]” for “1).”
Images were taken at postoperative week 8 using a micro CT for laboratory animals (Rigaku, tube voltage: 90 kV, tube current: 160 μA, voxel size: 118 μm). […] On the image at the level of the occlusal plane including the masseter muscle incision site, the muscle cross-sectional area (CSA), the mean CT value, and the % CSA (the percentage of the area having a muscle CT value in the area of interest) were measured and compared.

[4] = test system: Human skeletal muscle satellite cells (HskMSCs); experiment: Cell proliferative capacity (WST-1 assay); format: cell-based; settings: SV peptide 20 ng/mL; 0-72 hours
Text: Human skeletal muscle satellite cells (HskMSCs) were purchased from ScienCell Research Laboratories and used. The medium used for HskMSC culture was the supplier's recommended medium (Skeletal Muscle Cell Medium containing 5% FBS, Skeletal Muscle Cell Growth Supplement, and penicillin/streptomycin solution).
(§2) Human skeletal muscle satellite cells and human skeletal muscle myoblasts were separately seeded at 1.0×10^4 cells/mL in each well of non-treated polystyrene 96-well cell culture plates (Falcon). The SV peptide (20 ng/mL, SV group), the random SV (20 ng/mL, random SV group), or PBS (PBS group) was added to the medium. The plates were cultured at 37° C. in a 5% CO2 atmosphere. After 0, 12, 24, 48, and 72 hours, cell proliferation was assessed using Premix WST-1 Cell Proliferation Assay System (Takara Bio, Japan).

[5] = test system: Human skeletal muscle myoblasts (HSMMs); experiment: Cell proliferative capacity (WST-1 assay); format: cell-based; settings: SV peptide 20 ng/mL
Experimental: Human skeletal muscle myoblasts (HSMMs) were purchased from Lonza and used. The medium used for HSMM culture was the supplier's recommended medium (Skeletal Muscle Growth Media-2 supplemented with SingleQuots Kit).
as §2

mesenchymal cell = settings: Patent Literature 2; cited from earlier work
[6] = Patent Literature 3; cited from earlier work
fibroblasts = settings: Patent Literature 4; cited from earlier work

What does the source list for SVVYGLR [SV peptide]?
feeding efficiency (food intake per unit of mastication time) ([1]; postoperative week 1, relative to preoperative value = 1, SV peptide 20 ng/mL): reduced; feeding efficiency (food intake per unit of mastication time) ([1]; postoperative week 2, relative to preoperative value = 1, SV peptide 20 ng/mL): recovered to almost the preoperative level; chewing side preference ([2]; SV peptide into left, PBS into right masseter muscle): left-side chewing preference was seen postoperatively; mean myogenic potential of the left masseter muscle during left-side chewing ([2]; left = SV peptide side, right = PBS side): reduced postoperatively, but the degree of the reduction was smaller than that in the mean myogenic potential of the right masseter muscle; muscle cross-sectional area (CSA) ([3]; CT image at occlusal plane level, SV group vs PBS group): significantly greater CSA in the area including the muscle incision site than that in the corresponding area in the PBS group; % CSA (percentage of the area having a muscle CT value in the area of interest) ([3]; SV side vs control side within SV group): significantly higher % CSA on the left side with SV administration (SV side) than that on the right side without administration (control side); cell proliferative capacity [4]: not enhanced; cell proliferative capacity ([5]; time course within SV group): significantly increased after 24-hour treatment with the SV peptide and then reached a plateau; cell proliferative capacity ([5]; vs PBS group or random SV group, 12 hours and thereafter): significantly higher at 12 hours post-treatment and remained significantly higher thereafter than that in the PBS group or the random SV group; mesenchymal cell proliferation (mesenchymal cell): promotes mesenchymal cell proliferation; cardiac function [6]: improves cardiac function; type III collagen production in fibroblasts (fibroblasts): promotes type III collagen production in fibroblasts
